# Laboratory results published in patent publication US5116846A, “N-aralkyl piperidine derivatives as psychotropic drugs” (priority 1990, dated 1992).
# Tests used:
# sigma receptor = details: Tam, Eur. Pharmacol, 109:33-41 (1985); cited from earlier work
# [1] = Isolation-Induced Aggression in Mice; assay type: in vivo, mouse (male Balb/c)
# Method: Male Balb/c mice (Charles River) were used. […] Isolated mice failing to consistently attack an intruder were eliminated from the colony.
# Drug testing was carried out by treating the isolated mice with test drugs or standards. Fifteen minutes after dosing with test drugs by the oral route, one isolated mouse was removed from its home cage and placed in the home cage of another isolate. Scoring was a yes or no response for each pair. A maximum of 3 minutes was allowed for an attack and the pair was separated immediately upon an attack. Selection of home cage and intruder mice was randomized for each test. Mice were treated and tested twice a week with at least a 2 day washout period between treatments.
# [2] = (+)-N-Allylnormetazocine-Induced Turning Behavior in Rats; assay type: in vivo, rat (male Sprague-Dawley); details: test drug p.o. or s.c. 20 minutes before testing; (+)-N-allylnormetazocine 4.0 mg/kg s.c.; class symbols not defined
# Method: (+)-N-Allylnormetazocine-Induced Turning Behavior in Rats
# Male Sprague-Dawley rats (CDlCR, Charles River), weighing 190-290 g, were used for surgery. In order to spare […] neurons, rats were injected with 25 mg/kg imipramine i.p. 30 minutes before surgery. The rats were anesthetized with a 1:1.2 ratio mixture of Xylazine:Ketamine given 0.1 mL/100 g body weight i.m. A Ringers-Wydaze (100:0.01) solution was given to prevent dehydration. Dopamine was depleted in the right striatum by injecting the neurotoxin 6-hydroxydopamine (6-OHDA) into the substantia nigra of the right cerebral hemisphere. Five mg of 6-OHDA was dissolved in 5 mL of a 0.04% ascorbic acid solution which had been deoxygenated with nitrogen. Five μL of the 6-OHDA solution was injected into the substantia nigra through a 26 gauge needle over a five minute period. […]
# Rotation rate and direction were determined with Coulbourn Instruments Rotometry Monitors. Clockwise and counter clockwise rotations were recorded at 30 and 60 minute intervals. […]
# The data were analyzed with an analysis of variance statistical test and individual comparisons of each dose of test drug to control were made with Dunnett's multiple range test. The ED50 was calculated with a Litchfield and Wilcoxon test using percent of control values. […]
SMILES,affinity for the sigma receptor (sigma receptor),"Inhibition of Isolation-induced Aggression ([1]; oral, fifteen minutes after dosing, class symbols not defined)",Inhibition of Isolation-induced Aggression ([1]; po),Inhibition of (+)-N-Allylnormetazocine Induced Turning [2]
"c1ccc(C2(N3CCCCC3)CCCCC2)cc1 [PCP, phencyclidine]",significant affinity for the sigma receptor,–,–,–
"O=C(CCCN1CCC(O)(c2ccc(Cl)cc2)CC1)c1ccc(F)cc1 [Haloperidol, haloperidol]",–,potent activities in inhibiting the isolation-induced aggressive behavior,+++,potently antagonized
